Reference: US9879036B2, “Mitochondrial aldehyde dehydrogenase-2 binding compounds and methods of use thereof” (Aviv Therapeutics, Inc., priority 2014, dated 2018)

Biological target: T1, ALDH2*1/*1 (Homo sapiens, UniProt P05091)
T1 construct: His-tag (N); made in house; host or cells: E. coli BL21 (pTrcHis vector)
T1 sequence (P05091 18-517): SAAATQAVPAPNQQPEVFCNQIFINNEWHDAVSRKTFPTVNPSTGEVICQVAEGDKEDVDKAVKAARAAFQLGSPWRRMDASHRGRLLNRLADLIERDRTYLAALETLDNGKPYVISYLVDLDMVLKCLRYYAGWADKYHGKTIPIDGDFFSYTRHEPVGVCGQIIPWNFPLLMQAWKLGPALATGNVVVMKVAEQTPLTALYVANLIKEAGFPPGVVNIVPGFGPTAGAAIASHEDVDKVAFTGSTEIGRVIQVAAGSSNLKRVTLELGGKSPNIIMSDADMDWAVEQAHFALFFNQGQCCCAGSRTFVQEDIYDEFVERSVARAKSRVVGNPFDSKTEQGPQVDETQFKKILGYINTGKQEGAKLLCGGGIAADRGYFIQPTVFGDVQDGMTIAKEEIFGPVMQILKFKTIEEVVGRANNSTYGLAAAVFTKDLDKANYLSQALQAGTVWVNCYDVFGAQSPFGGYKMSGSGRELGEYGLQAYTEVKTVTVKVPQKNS
Test: ALDH2 enzymatic activity, NADH accumulation at 340 nm, acetaldehyde substrate, wild type
Assay type: biochemical
Settings: relative to baseline enzymatic activity (100%)
Description: (§1) ALDH2 catalyzes the oxidative reaction of substrate acetaldehyde to acetic acid using NAD^+ as a cofactor. Enzymatic activity, or catalytic rate, of aldehyde dehydrogenase (ALDH2) are measured spectrophotometrically at UV wavelength λ340 nm by the accumulation of reduced product NADH derived from NAD^+. Absorbance at λ340 nm is quantitatively proportional to the amount of NADH being produced over time (6.22 O.D. unit=1 mmol of NADH, measured in a 1-cm width standard cuvette). This method is well-established in the literature [e.g. Rex et al., Alcohol Clin. Exp. Res. 9, 147 (1985)].
as §1, with “can be” for “are”
Cloning, expression and purification of human ALDH2 wild type and ALDH2*2 recombinant mutant enzymes: Full-length wild type human ALDH2 cDNA was purchased from ATCC (No. MGC-1806. GenBank ID: BC002967). The 18-amino acid mitochondria transport signal sequence was removed by PCR and cloned into the NheI/HindIII sites of a His-tag vector, pTrcHis, using standard molecular cloning techniques. The human ALDH2* cDNA construct containing the Asian E487K mutation was obtained by site-directed mutagenesis to create the E487K substitution of the wild type ALDH2. Both human clones were designed to express a recombinant protein with the His-tag at the N-terminus of the protein. For the co-expression experiments of human ALDH2 wild type and ALDH2*2 heterotetramers, a wild type ALDH2 gene and a ALDH2 E487K gene were inserted separately into the two multiple cloning sites of pETDuet-1 vector. (Novagen, CA, USA). All the vectors were transformed into BL21 E. coli host cells and subjected to 0.5 mM IPTG induction for protein expression at 30° C. Purifications of the recombinant proteins by affinity nickel columns (HisTrap, GE Healthy Science, USA) were carried out using standard protocols according to manufacturer's instructions (Novagen, USA).
ALDH2 catalyzes the oxidative reaction of substrate acetaldehyde to acetic acid using NAD^+ as a cofactor. Enzymatic activity, or catalytic rate, of aldehyde dehydrogenase (ALDH2) can be measured spectrophotometrically at UV wavelength λ340 nm by the accumulation of reduced product NADH derived from NAD^+. Because compounds of formula (I) are considered to be agonists or “activators” of ALDH2 the enzymatic activity measured will exceed 100% of the baseline enzymatic activity of the enzyme in its normal activation state. As the concentration of the compounds of formula (I) decreases from 20 micromolar to 0.16 micromolar in the presence of ALDH, a decrease in the activation of enzymatic activity is observed for the wild-type ALDH2*1/*1 and the heterozygous form ALDH2*1/*2.

activity at 2.5 µM (2.5 μM compound): 208% | activity at 5 µM (5 μM compound): 238% | activity at 10 µM (10 μM compound): 293% | activity at 20 µM (20 μM compound): 299%
Compound: COc1ccc(CNC(=O)c2cc(-c3ncccc3CO)ccc2OCC2CC2)cc1F [AC6]
